Laboratory results taken from US9789165B2 (Sanofi, priority 2013, dated 2017).
Values after ≈ are worked out from the molar mass of the structure shown. Read-outs that look alike come from different tables or passages of the source. Square brackets hold non-standard residues; d marks the D form. Peptide text beside a SMILES is read from it. Nle = CCCC[C@H](N)C(=O)O; Aib = CC(C)(N)C(=O)O

How the values were obtained:
[1] = molecular target: T1, human glucagon receptor (hGLUC R) (Homo sapiens, UniProt P47871); experiment: cAMP response of HEK-293 cells stably expressing human glucagon receptor (HTRF); format: cell-based; conditions: Table 6; cAMP formation
T1 construct: expressed in transfected cells
T1 sequence (P47871 26-477): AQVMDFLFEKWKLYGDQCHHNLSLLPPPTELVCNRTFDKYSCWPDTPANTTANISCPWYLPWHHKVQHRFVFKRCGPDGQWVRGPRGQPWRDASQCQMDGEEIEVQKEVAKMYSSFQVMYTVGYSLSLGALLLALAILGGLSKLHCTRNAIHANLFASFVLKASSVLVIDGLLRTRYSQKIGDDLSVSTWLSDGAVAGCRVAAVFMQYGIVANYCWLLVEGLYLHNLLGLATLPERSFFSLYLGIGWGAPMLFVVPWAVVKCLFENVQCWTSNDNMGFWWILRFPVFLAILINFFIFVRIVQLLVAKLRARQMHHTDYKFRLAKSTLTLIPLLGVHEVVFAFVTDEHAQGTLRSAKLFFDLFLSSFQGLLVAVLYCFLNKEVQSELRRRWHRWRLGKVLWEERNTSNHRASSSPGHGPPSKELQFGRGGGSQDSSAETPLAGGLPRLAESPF
Method: cAMP content of cells was determined using a kit from Cisbio Corp. (cat. no. 62AM4PEC) based on HTRF (Homogenous Time Resolved Fluorescence). For preparation, cells were split into T175 culture flasks and grown overnight to near confluency in medium (DMEM/10% FBS). Medium was then removed and cells washed with PBS lacking calcium and magnesium, followed by proteinase treatment with accutase (Sigma-Aldrich cat. no. A6964). Detached cells were washed and resuspended in assay buffer (1×HBSS; 20 mM HEPES, 0.1% BSA, 2 mM IBMX) and cellular density determined. They were then diluted to 400000 cells/ml and 25 μl-aliquots dispensed into the wells of 96-well plates. For measurement, 25 μl of test compound in assay buffer was added to the wells, followed by incubation for 30 minutes at room temperature.

[2] = Solubility testing in buffer systems, HPLC-UV of supernatant; format: physicochemical; conditions: buffer system
Method: Prior to the testing of solubility and stability of a peptide batch, its content was determined. Therefore, two parameters were investigated, its purity (HPLC-UV) and the amount of salt load of the batch (ion chromatography).
Therefore, solutions from solid samples were prepared in different buffer systems with a concentration of 1.0 mg/mL compound based on the previously determined content. HPLC-UV was performed after 2 h of gentle agitation from the supernatant, which was obtained by 20 min of centrifugation at 4000 rpm.
This analysis also served as starting point (t0) for the stability testing.
(§1) As HPLC/UPLC method, method D or E has been used.

[3] = format: physicochemical; conditions: buffer, 168 h
Method: After that time course, the sample was centrifuged for 20 min at 4000 rpm and the supernatant was analysed with HPLC-UV.
For determination of the amount of the remaining peptide, the peak areas of the target compound at t0 and t7 were compared, resulting in “% remaining peptide”, following the equation % remaining peptide=[(peak area peptide t7)×100]/peak area peptide t0.
The chemical stability is expressed as “% remaining peptide”.
as §1

[4] = Pharmacokinetic testing in mice, plasma LC/MS; format: in vivo; conditions: mouse, sc, 1 mg/kg s.c.
Method: Mice were dosed 1 mg/kg subcutaneously (s.c.). The mice were sacrified and blood samples were collected after 0.25, 0.5, 1, 2, 4, 8, 16 and 24 hours post application. Plasma samples were analyzed after protein precipitation via liquid chromatography mass spectrometry (LC/MS). PK parameters and half-life were calculated using WinonLin Version 5.2.1 (non-compartment model).
Pharmacokinetic profiles were determined as described in Methods.

[5] = tested on: female diabetic dbdb-mice; experiment: Glucose lowering in non-fasted female diabetic dbdb-mice; format: in vivo; conditions: 100 μg/kg s.c., baseline on average 29 mmol/l
Method: Female diabetic dbdb-mice (BKS.Cg−+Leprdb/+Leprdb/OlaHsd) 10 weeks of age at study start were used. Mice were habituated to feeding and housing conditions for at least 2 weeks. 7 days prior to study start, HbA1c were determined to allocate mice to groups, aiming to spread low, medium and high HbA1c-values and in consequence the group-means (n=8), as equally as possible. On the day of study, food was removed, directly before sampling for baseline glucose assessment (t=0 min). Immediately afterwards, compounds or vehicle (phosphor buffered saline, PBS) were administered subcutaneously, 100 μg/kg, 10 ml/kg. Afterwards, blood samples were drawn by tail tip incision at 15, 30, 60, 90, 120, 150, 180, 240, 360, 480 min and 24 h. Food was re-offered after the 480 min-sampling.
Data were analysed by 2-W-ANOVA on repeated measurements, followed by Dunnett's test as post-hoc assessment, level of significance p<0.05.
Female dbdb-mice, received 100 μg/kg of SEQ ID NO: 8, SEQ ID NO: 9 or phosphate buffered saline (vehicle control) subcutaneously, at time 0 min.

[6] = pH 4.5, target concentration 1.0 mg/mL, read-out: Solubility (pH 4.5)
[7] = pH 7.4, target concentration 1.0 mg/mL, read-out: Solubility (pH 7.4)

## CC[C@H](C)[C@H](NC(=O)[C@H](CO)NC(=O)[C@H](CC(C)C)NC(=O)[C@H](CC(=O)O)NC(=O)[C@H](CO)NC(=O)[C@@H](NC(=O)[C@H](Cc1ccccc1)NC(=O)[C@@H](NC(=O)CNC(=O)[C@H](CCC(=O)O)NC(=O)C(C)(C)NC(=O)[C@@H](N)Cc1ccc(O)cc1)[C@@H](C)O)[C@@H](C)O)C(=O)N[C@@H](CCC(N)=O)C(=O)N[C@@H](CCSC)C(=O)N[C@@H](CCC(=O)O)C(=O)N[C@@H](CCCCN)C(=O)N[C@@H](CCCNC(=N)N)C(=O)N[C@@H](C)C(=O)N[C@@H](C)C(=O)NC(C)(C)C(=O)N[C@@H](CCC(=O)O)C(=O)N[C@@H](Cc1ccccc1)C(=O)N[C@H](C(=O)N[C@@H](CCC(=O)O)C(=O)N[C@@H](Cc1c[nH]c2ccccc12)C(=O)N[C@@H](CC(C)C)C(=O)N[C@@H](CCCCN)C(=O)N[C@@H](C)C(=O)NCC(=O)NCC(=O)N1CCC[C@H]1C(=O)N[C@@H](CO)C(=O)N[C@@H](CO)C(=O)NCC(=O)N[C@@H](C)C(=O)N1CCC[C@H]1C(=O)N1CCC[C@H]1C(=O)N1CCC[C@H]1C(=O)N[C@@H](CO)C(N)=O)[C@@H](C)CC [SEQ ID NO: 8, Y-Aib-E-G-T-F-T-S-D-L-S-I-Q-M-E-K-R-A-A-Aib-E-F-I-E-W-L-K-A-G-G-P-S-S-G-A-P-P-P-S-NH2] (H-Y[Aib]EGTFTSDLSIQMEKRAA[Aib]EFIEWLKAGGPSSGAPPPS-NH2)
[1]
  EC50: > 1 µM
[2]; [6]
  solubility at 2 h: > 1000 µg/mL
[2]; [7]
  solubility at 2 h: > 1000 µg/mL
[3]
  Stability (pH 4.5), % remaining peptide: 99%
  Stability (pH 7.4), % remaining peptide: 92%
[4]
  Cmax: 734 ng/mL
  half-life: 18 min
[5]
  maximal effect, glucose reduction: ~12 mmol/L

## CC[C@H](C)[C@H](NC(=O)[C@H](CO)NC(=O)[C@H](CC(C)C)NC(=O)[C@H](CC(=O)O)NC(=O)[C@H](CO)NC(=O)[C@@H](NC(=O)[C@H](Cc1ccccc1)NC(=O)[C@@H](NC(=O)CNC(=O)[C@H](CCC(=O)O)NC(=O)C(C)(C)NC(=O)[C@@H](N)Cc1ccc(O)cc1)[C@@H](C)O)[C@@H](C)O)C(=O)N[C@@H](CCC(N)=O)C(=O)N[C@@H](CC(C)C)C(=O)N[C@@H](CCC(=O)O)C(=O)N[C@@H](CCCCN)C(=O)N[C@@H](CCCNC(=N)N)C(=O)N[C@@H](C)C(=O)N[C@@H](C)C(=O)NC(C)(C)C(=O)N[C@@H](CCC(=O)O)C(=O)N[C@@H](Cc1ccccc1)C(=O)N[C@H](C(=O)N[C@@H](CCC(=O)O)C(=O)N[C@@H](Cc1c[nH]c2ccccc12)C(=O)N[C@@H](CC(C)C)C(=O)N[C@@H](CCCCN)C(=O)N[C@@H](C)C(=O)NCC(=O)NCC(=O)N1CCC[C@H]1C(=O)N[C@@H](CO)C(=O)N[C@@H](CO)C(=O)NCC(=O)N[C@@H](C)C(=O)N1CCC[C@H]1C(=O)N1CCC[C@H]1C(=O)N1CCC[C@H]1C(=O)N[C@@H](CO)C(N)=O)[C@@H](C)CC [SEQ ID NO: 9, Y-Aib-E-G-T-F-T-S-D-L-S-I-Q-L-E-K-R-A-A-Aib-EFIEWLKAGGPSSGAPPPSN H2] (H-Y[Aib]EGTFTSDLSIQLEKRAA[Aib]EFIEWLKAGGPSSGAPPPS-NH2)
[2]; [6]
  solubility at 2 h: 875 µg/mL (≈ 213 µM)
[2]; [7]
  solubility at 2 h: 892 µg/mL (≈ 217 µM)
[3]
  Stability (pH 4.5), % remaining peptide: 100%
  Stability (pH 7.4), % remaining peptide: 100%
[5]
  maximal effect, glucose reduction: ~16 mmol/L

## CCCC[C@H](NC(=O)[C@H](CCC(N)=O)NC(=O)[C@@H](NC(=O)[C@H](CO)NC(=O)[C@H](CC(C)C)NC(=O)[C@H](CC(=O)O)NC(=O)[C@H](CO)NC(=O)[C@@H](NC(=O)[C@H](Cc1ccccc1)NC(=O)[C@@H](NC(=O)CNC(=O)[C@H](CCC(=O)O)NC(=O)C(C)(C)NC(=O)[C@@H](N)Cc1ccc(O)cc1)[C@@H](C)O)[C@@H](C)O)[C@@H](C)CC)C(=O)N[C@@H](CCC(=O)O)C(=O)N[C@@H](CCCCN)C(=O)N[C@@H](CCCNC(=N)N)C(=O)N[C@@H](C)C(=O)N[C@@H](C)C(=O)NC(C)(C)C(=O)N[C@@H](CCC(=O)O)C(=O)N[C@@H](Cc1ccccc1)C(=O)N[C@H](C(=O)N[C@@H](CCC(=O)O)C(=O)N[C@@H](Cc1c[nH]c2ccccc12)C(=O)N[C@@H](CC(C)C)C(=O)N[C@@H](CCCCN)C(=O)N[C@@H](C)C(=O)NCC(=O)NCC(=O)N1CCC[C@H]1C(=O)N[C@@H](CO)C(=O)N[C@@H](CO)C(=O)NCC(=O)N[C@@H](C)C(=O)N1CCC[C@H]1C(=O)N1CCC[C@H]1C(=O)N1CCC[C@H]1C(=O)N[C@@H](CO)C(N)=O)[C@@H](C)CC [SEQ ID NO: 10, Y-Aib-E-G-T-F-T-S-D-L-S-I-Q-Nle-E-K-R-A-A-Aib-E-F-I-E-W-L-K-A-G-G-P-S-S-G-A-P-P-P-S-NH2] (H-Y[Aib]EGTFTSDLSIQ[Nle]EKRAA[Aib]EFIEWLKAGGPSSGAPPPS-NH2)
[2]; [6]
  solubility at 2 h: 960 µg/mL (≈ 234 µM)
[2]; [7]
  solubility at 2 h: > 1000 µg/mL
[3]
  Stability (pH 4.5), % remaining peptide: 100%
  Stability (pH 7.4), % remaining peptide: 100%
